According to ChEMBL document CHEMBL1201862, “PubChem BioAssay data set” (2004):
Activity calls are given as the source filed them.

What was measured:
[1] = molecular target: T1, Kappa-type opioid receptor (Homo sapiens, UniProt P41145); test: SAR analysis of small molecule agonists of the kappa opioid receptor via a luminescent beta-arrestin assay - Set 3. [Related pubchem assays (depositor defined):AID1777, AID1785, AID1786, AID1966, AID2133, AID2136, AID2284, AID2500]; assay type: functional
[2] = molecular target: T2, Short transient receptor potential channel 4 (Mus musculus, UniProt Q9QUQ5); test: block of DAMGO-driven TRPC4 calcium entry – cell-based, HEK293 TRPC4/mu-opioid, Fluo-4 calcium, dose response (AID 434942); assay type: functional;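 note: potency of inhibitors blocking the TRPC4 calcium response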
T2 sequence (Q9QUQ5 whole entry): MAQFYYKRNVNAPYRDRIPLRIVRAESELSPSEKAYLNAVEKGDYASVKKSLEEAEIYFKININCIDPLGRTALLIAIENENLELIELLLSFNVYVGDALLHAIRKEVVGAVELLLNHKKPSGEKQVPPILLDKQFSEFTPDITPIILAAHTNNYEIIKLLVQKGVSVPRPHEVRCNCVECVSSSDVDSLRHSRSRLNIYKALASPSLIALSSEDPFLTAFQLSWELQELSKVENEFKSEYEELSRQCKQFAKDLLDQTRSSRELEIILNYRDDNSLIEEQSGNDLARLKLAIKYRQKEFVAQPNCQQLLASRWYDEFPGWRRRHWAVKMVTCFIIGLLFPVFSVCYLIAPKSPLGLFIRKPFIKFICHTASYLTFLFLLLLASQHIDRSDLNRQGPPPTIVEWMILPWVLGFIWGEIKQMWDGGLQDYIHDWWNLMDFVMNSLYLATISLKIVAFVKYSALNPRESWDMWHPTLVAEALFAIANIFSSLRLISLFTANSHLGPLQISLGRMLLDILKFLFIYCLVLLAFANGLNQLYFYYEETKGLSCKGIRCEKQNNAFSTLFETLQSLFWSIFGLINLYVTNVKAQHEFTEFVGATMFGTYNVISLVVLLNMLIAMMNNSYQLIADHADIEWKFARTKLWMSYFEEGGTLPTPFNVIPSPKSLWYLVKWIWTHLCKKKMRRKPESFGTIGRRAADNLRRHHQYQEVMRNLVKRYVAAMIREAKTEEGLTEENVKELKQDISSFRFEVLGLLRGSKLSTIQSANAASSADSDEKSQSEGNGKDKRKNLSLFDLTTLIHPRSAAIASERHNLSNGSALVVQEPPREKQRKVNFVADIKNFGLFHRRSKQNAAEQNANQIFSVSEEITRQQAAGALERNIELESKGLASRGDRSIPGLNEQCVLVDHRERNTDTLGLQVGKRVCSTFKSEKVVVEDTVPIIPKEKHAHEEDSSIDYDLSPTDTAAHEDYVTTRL

[3] = molecular target: T3, G-protein coupled receptor 35 (Homo sapiens, UniProt Q9HC97); test: SAR analysis of Antagonists of the GPR35 Receptor using an Image-Based Assay - Set 3. [Related pubchem assays (depositor defined):AID2013, AID2026]; assay type: functional
T3 sequence (Q9HC97 whole entry): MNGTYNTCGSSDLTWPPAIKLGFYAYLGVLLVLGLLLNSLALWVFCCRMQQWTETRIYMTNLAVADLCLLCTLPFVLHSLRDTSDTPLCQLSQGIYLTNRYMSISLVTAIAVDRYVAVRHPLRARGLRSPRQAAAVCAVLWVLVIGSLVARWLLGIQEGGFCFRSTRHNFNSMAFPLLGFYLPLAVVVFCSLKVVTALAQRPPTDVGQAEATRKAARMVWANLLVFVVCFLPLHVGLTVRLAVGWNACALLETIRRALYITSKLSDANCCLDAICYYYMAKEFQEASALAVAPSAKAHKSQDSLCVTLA

[4] = molecular target: T4, G-protein coupled receptor 55 (Homo sapiens, UniProt Q9Y2T6); test: inhibition of LPI-stimulated GPR55 beta-arrestin translocation – imaging, U2OS, beta-arrestin-GFP, LPI agonist, primary screen (AID 2013); assay type: functional;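 note: antagonist potency measured as reduced agonist-driven arrestin aggregation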
T4 sequence (Q9Y2T6 whole entry): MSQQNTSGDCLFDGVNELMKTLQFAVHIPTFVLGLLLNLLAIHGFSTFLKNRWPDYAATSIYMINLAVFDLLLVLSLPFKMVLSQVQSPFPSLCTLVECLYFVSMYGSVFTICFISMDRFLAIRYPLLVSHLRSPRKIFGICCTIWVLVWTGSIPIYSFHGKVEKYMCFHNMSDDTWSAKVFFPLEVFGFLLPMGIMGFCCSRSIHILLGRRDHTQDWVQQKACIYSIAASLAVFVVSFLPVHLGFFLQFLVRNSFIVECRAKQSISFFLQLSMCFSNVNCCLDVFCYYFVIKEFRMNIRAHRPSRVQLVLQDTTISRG

[5] = molecular target: T5, Cannabinoid receptor 2 (Homo sapiens, UniProt P34972); test: SAR analysis of antagonists of the Cannabinoid Receptor 2 using an Image-Based Assay. [Related pubchem assays (depositor defined):AID2013, AID2026]; assay type: functional
T5 sequence (P34972 whole entry): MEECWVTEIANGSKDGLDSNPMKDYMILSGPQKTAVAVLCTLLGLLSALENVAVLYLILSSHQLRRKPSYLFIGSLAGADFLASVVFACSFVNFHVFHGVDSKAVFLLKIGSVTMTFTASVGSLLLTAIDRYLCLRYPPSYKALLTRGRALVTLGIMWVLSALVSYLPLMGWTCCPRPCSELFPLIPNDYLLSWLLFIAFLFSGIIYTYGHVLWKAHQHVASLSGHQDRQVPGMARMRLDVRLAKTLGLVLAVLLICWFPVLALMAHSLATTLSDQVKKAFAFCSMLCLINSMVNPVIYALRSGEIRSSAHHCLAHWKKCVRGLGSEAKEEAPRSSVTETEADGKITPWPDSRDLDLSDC

[6] = molecular target: T6, Cannabinoid receptor 1 (Homo sapiens, UniProt P21554); test: SAR analysis of agonists of the Cannabinoid Receptor 1 using an Image-Based Assay - Set 2. [Related pubchem assays (depositor defined):AID2013, AID2026]; assay type: functional
T6 sequence (P21554 whole entry): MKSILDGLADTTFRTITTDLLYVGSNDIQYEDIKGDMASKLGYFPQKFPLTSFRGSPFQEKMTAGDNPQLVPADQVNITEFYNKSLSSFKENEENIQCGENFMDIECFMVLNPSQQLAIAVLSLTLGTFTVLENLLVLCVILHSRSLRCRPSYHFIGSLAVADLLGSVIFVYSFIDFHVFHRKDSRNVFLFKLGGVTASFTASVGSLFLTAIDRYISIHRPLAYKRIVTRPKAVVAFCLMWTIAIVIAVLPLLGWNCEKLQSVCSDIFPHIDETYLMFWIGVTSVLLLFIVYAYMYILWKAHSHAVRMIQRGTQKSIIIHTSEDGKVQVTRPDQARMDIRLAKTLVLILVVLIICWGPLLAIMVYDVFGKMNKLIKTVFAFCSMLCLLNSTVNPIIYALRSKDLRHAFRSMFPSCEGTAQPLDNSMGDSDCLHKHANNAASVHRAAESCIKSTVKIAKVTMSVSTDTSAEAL

[7] = molecular target: T3, G-protein coupled receptor 35; test: SAR analysis of Agonists of the GPR35 Receptor using an Image-Based Assay - Set 2. [Related pubchem assays (depositor defined):AID2013, AID2026]; assay type: functional
[8] = molecular target: T6, Cannabinoid receptor 1; test: SAR analysis of antagonists of the Cannabinoid Receptor 1 using an Image-Based Assay - Set 2. [Related pubchem assays (depositor defined):AID2013, AID2026]; assay type: functional
[9] = molecular target: T4, G-protein coupled receptor 55; test: blockade of LPI-induced GPR55 arrestin translocation – imaging, U2OS, beta-arrestin-GFP, LPI agonist, set 2, SAR follow-up (AID 2820); assay type: functional
[10] = molecular target: T5, Cannabinoid receptor 2; test: SAR analysis of agonists of the Cannabinoid Receptor 2 using an Image-Based Assay. [Related pubchem assays (depositor defined):AID2013, AID2026]; assay type: functional
[11] = molecular target: T7, Dual specificity protein phosphatase 3 (Homo sapiens, UniProt P51452); test: VHR1 phosphatase inhibitors, primary screen, biochemical, absorbance, uHTS (AID 1654)
T7 sequence (P51452 whole entry): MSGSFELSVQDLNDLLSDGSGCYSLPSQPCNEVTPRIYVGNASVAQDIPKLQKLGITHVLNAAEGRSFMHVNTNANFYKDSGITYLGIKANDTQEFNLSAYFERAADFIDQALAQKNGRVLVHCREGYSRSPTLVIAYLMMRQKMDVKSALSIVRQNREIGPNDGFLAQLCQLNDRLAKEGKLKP

[12] = molecular target: Dual specificity protein phosphatase 6 (Rattus norvegicus, UniProt Q64346); test: inhibition of rat DUSP6 enzyme activity – biochemical, in vitro, primary screen (AID 425)
[13] = molecular target: T8, Calpain-2 catalytic subunit (Sus scrofa, UniProt P43367); test: m-calpain protease blockers, concentration series – biochemical, fluorogenic peptide substrate, dose response (AID 1420); assay type: functional
T8 sequence (P43367 whole entry): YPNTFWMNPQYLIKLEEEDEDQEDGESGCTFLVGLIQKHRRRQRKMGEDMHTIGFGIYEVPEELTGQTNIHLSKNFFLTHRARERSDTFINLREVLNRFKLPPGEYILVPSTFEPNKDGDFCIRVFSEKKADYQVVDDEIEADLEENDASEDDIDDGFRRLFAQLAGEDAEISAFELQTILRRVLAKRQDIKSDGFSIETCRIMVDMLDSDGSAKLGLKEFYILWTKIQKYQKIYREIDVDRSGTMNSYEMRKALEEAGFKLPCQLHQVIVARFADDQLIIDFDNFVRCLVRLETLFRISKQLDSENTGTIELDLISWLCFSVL

[14] = molecular target: T9, Small ubiquitin-related modifier 1 (Homo sapiens, UniProt P63165); test: SUMO1 protein-protein binding blockers, potency – biochemical, FRET, dose response (AID 624383); assay type: functional; details: read-out: IC50_Mean
T9 sequence (P63165 whole entry): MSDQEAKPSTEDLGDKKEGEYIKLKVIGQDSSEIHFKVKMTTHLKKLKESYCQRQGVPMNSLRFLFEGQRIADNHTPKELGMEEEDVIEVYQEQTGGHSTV

[15] = molecular target: T7, Dual specificity protein phosphatase 3; test: VHR1 phosphatase inhibitors, biochemical (AID 1878)
[16] = molecular target: T9, Small ubiquitin-related modifier 1; test: SUMO1 protein interaction blockers, potency – biochemical, fluorescence polarization, uHTS hits, dose response (AID 624382); assay type: functional; details: read-out: IC50_Mean
[17] = antiviral protection against BTV-induced cell death – arbovirus, BSR cells, confirmation (AID 1250); assay type: functional;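 note: protection from viral cytopathic effect measured as cell viability by ATP luminescence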
[18] = molecular target: Eukaryotic translation initiation factor 4E (Mus musculus, UniProt P63073); test: blockers of eIF4G binding by eIF4E – biochemical, TR-FRET, dose response (AID 855); assay type: functional;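 note: potency for disrupting eIF4E binding to eIF4GI seen as loss of FRET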
Chain of Eukaryotic translation initiation factor 4E (P63073 whole entry): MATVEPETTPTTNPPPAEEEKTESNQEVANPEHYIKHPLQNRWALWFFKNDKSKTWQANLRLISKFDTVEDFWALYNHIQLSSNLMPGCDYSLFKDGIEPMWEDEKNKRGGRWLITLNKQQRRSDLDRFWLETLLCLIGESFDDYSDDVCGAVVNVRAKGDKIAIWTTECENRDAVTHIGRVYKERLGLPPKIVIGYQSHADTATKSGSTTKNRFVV

[19] = molecular target: Tumor necrosis factor (Homo sapiens, UniProt P01375); test: analog potency on TNFa NF-kB signaling – cell-based, revised, SAR follow-up (AID 2337); assay type: functional
Chain of Tumor necrosis factor (P01375 whole entry, the tested form may be a part): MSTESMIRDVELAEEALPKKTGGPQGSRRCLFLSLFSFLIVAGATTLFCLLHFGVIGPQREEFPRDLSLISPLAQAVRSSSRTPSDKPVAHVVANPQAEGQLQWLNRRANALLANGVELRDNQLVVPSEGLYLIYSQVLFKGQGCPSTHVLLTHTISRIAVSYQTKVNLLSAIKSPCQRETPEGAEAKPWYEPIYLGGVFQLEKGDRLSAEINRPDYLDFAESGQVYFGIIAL

[20] = molecular target: Nucleotide-binding oligomerization domain-containing protein 1 (Homo sapiens, UniProt Q9Y239); test: blockers of NOD1 pathway activity – revised, SAR follow-up (AID 2333); assay type: functional
Chain of Nucleotide-binding oligomerization domain-containing protein 1 (Q9Y239 whole entry, the tested form may be a part): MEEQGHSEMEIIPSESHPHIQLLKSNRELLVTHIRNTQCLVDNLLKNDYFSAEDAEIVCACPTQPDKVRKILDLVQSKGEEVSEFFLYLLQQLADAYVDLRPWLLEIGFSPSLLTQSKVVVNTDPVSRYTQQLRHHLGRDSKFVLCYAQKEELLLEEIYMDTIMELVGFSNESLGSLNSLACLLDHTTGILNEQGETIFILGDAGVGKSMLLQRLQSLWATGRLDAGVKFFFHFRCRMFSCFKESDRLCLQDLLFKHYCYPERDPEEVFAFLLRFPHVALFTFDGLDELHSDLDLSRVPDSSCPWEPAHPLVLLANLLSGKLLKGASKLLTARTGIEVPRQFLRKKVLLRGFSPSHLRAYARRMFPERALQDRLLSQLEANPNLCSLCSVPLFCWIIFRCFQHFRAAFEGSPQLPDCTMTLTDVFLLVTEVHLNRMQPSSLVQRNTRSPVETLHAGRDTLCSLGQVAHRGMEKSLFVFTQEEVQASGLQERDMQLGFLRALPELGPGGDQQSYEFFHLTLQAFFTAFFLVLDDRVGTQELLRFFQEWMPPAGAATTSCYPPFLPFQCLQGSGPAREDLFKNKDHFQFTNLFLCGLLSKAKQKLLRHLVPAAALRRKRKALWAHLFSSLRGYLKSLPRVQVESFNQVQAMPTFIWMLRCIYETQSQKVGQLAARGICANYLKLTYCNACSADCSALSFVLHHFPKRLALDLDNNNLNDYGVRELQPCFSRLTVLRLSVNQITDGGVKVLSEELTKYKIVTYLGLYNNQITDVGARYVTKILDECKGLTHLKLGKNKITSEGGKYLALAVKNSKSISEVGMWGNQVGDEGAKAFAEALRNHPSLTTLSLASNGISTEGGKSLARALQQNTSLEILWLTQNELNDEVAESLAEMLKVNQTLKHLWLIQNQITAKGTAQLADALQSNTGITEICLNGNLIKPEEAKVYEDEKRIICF

[21] = system: HEK293; test: cells; details: Homo sapiens;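 note: cells exposed to compound for 14 hours overnight before viability readout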
[22] = Luminescence Cell-Based Dose Response HTS to Identify Inhibitors of 5'UTR Stem-Loop Driven Prion Protein mRNA Translation in H4 Neuroglioblastoma Cells. [Related pubchem assays: 1827 (Project Summary), 1813 (Primary HTS)]; assay type: functional
[23] = alpha-synuclein stem-loop luciferase translation blockers – H4 neuroglioma cells, luminescence, confirmation (AID 1988); assay type: functional, cell-based
[24] = luciferase reporter signal suppression in cells – H4 neuroglioma cells, luminescence, dose response (AID 1990); assay type: functional, cell-based
[25] = molecular target: Sphingosine 1-phosphate receptor 1 (Homo sapiens, UniProt P21453); test: Fluorescence-based counterscreen assay for S1P4 agonists: Cell-based dose response high throughput screening assay to identify agonists of the Sphingosine 1-Phosphate Receptor 1 (S1P1). [Related pubchem assays (depositor defined):AID1509, AID1523, AID1801, AID463107, AID463118, AID463119, AID463122, AID463123, AID463129, AID463225, AID504400, AID504460]; assay type: functional
Chain of Sphingosine 1-phosphate receptor 1 (P21453 whole entry): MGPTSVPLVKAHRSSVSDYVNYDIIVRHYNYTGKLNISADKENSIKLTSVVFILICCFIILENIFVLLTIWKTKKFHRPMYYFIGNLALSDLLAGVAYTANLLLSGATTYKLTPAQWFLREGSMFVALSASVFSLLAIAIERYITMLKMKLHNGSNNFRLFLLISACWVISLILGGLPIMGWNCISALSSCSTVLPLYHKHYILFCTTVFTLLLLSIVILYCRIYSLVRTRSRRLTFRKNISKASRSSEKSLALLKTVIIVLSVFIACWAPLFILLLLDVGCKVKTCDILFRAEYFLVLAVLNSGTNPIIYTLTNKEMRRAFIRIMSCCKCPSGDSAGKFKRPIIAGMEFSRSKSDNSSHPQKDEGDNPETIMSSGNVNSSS

[26] = molecular target: Sphingosine 1-phosphate receptor 4 (Homo sapiens, UniProt O95977); test: Fluorescence dose response cell-based high throughput screening assay for agonists of the Sphingosine 1-Phosphate Receptor 4 (S1P4). [Related pubchem assays: 1509 (Primary screen.), 1523 (Confirmation screen in triplicates.)]; assay type: functional
[27] = molecular target: T10, Mu-type opioid receptor (Homo sapiens, UniProt P35372); test: mu opioid receptor blockers – image-based, SAR follow-up (AID 2420); assay type: functional;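 note: compounds added before stimulation of receptor with agonist DAMGO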
T10 sequence (P35372 whole entry): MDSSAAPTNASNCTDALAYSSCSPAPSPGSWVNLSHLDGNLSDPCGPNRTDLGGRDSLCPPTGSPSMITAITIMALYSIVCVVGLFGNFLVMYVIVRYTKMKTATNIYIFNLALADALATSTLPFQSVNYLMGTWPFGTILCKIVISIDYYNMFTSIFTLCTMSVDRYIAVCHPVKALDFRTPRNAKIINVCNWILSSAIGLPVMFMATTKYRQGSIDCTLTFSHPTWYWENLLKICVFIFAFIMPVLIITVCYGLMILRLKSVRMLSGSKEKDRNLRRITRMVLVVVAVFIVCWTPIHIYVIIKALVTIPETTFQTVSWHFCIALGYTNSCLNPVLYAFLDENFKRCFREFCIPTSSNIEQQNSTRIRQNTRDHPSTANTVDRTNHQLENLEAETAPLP

[28] = molecular target: T1, Kappa-type opioid receptor; test: SAR analysis of small molecule agonists of the kappa opioid receptor via a luminescent beta-arrestin assay. [Related pubchem assays (depositor defined):AID1777, AID1786, AID1966, AID2133, AID2136, AID2348, AID2352, AID2357, AID2359, AID2370, AID2420, AID2478, AID2491, AID2492, AID2493, AID2497, AID2498, AID2500, AID449737, AID488822, AID488842]; assay type: functional
[29] = molecular target: T10, Mu-type opioid receptor; test: mu opioid receptor activators, image-based, SAR follow-up (AID 2352); assay type: functional
[30] = molecular target: T11, Delta-type opioid receptor (Homo sapiens, UniProt P41143); test: delta opioid receptor blockers – image-based, SAR follow-up (AID 2357); assay type: functional
T11 sequence (P41143 whole entry): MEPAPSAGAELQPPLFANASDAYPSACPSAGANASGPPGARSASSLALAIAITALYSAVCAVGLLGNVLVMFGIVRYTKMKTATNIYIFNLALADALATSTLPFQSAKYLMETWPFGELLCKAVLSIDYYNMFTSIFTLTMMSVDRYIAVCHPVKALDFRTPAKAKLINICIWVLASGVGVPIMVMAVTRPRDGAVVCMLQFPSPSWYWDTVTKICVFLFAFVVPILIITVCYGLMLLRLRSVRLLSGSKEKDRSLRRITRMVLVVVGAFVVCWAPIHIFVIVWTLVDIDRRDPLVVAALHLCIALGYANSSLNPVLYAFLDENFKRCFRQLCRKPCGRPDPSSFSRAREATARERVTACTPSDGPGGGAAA

[31] = molecular target: T1, Kappa-type opioid receptor; test: kappa opioid receptor activation potency – imaging, image-based, SAR follow-up (AID 2359); assay type: functional
[32] = molecular target: T1, Kappa-type opioid receptor; test: kappa opioid receptor blockers, image-based, SAR follow-up (AID 2348); assay type: functional
[33] = molecular target: T11, Delta-type opioid receptor; test: DOR agonists, SAR follow-up, image-based (AID 2370); assay type: functional

T1 sequence (P41145 whole entry): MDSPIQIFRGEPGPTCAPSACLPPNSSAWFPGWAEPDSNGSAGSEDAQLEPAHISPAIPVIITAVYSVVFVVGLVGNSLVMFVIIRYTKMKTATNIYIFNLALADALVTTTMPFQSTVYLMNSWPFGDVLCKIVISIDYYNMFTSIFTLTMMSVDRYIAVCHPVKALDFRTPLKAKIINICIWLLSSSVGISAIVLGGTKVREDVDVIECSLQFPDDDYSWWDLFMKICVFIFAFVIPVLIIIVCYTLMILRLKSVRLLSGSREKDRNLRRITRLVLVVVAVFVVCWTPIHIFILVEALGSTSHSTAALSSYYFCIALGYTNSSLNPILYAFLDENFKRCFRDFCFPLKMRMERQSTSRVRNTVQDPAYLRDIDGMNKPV

Which EC50 [1] does the source give for `Clc1ccc(CSc2nnc(-c3ccncc3)n2Cc2ccco2)cc1Cl` here?
The EC50 was > 20 µM (inactive).

What does the source list for `Cc1[nH]nc(-c2ccc(O)cc2O)c1-c1ccc(Cl)cc1`?
EC50 [2]: 5.31 µM (active); IC50 [3]: > 32 µM (inactive); IC50 [4]: 3.44 µM (active); IC50 [5]: > 32 µM (inactive); EC50 [6]: > 32 µM (inactive); EC50 [7]: > 32 µM (inactive); IC50 [8]: > 32 µM (inactive); IC50 [9]: 2.05 µM (active); EC50 [10]: > 32 µM (inactive)

Which IC50 [11] does the source give for `O=C(CSc1nc(-c2ccc(F)cc2)nc2c1Cc1ccccc1O2)Nc1ccc(C(=O)O)cc1` here?
Its IC50 is 5.02 µM (active).

What about the IC50 [12] of the same molecule?
The IC50 was 10.1 µM (active).

What about the IC50 [13] of the same molecule?
Its IC50 is > 50 µM (not active).

And the IC50 [14]?
The IC50 was 3.36 µM (active).

And the IC50 [15]?
Its IC50 is 4.04 µM (active).

What about the IC50 [16] of the same molecule?
The IC50 was > 66.6 µM (inactive).

What about the IC50 [17] of the same molecule?
Its IC50 is 23 µM (active).

And the IC50 [18]?
The IC50 was 50 µM (inactive).

For `COCCn1c(C)cc(C(=O)COC(=O)c2cccc(O)c2)c1C`, which IC50 [19] is on record?
Its IC50 is 0.704 µM (active).

What about the IC50 [20] of the same molecule?
The IC50 was 2.5 µM (active).

And the IC50 [21]?
Its IC50 is > 20 µM (inactive).

What about the EC50 [22] of the same molecule?
Its EC50 is 0.121 µM (active).

What about the EC50 [23] of the same molecule?
The EC50 was 0.137 µM (active).

What about the EC50 [24] of the same molecule?
The EC50 was < 0.1 µM (active).

Which EC50 [25] does the source give for `N#Cc1cc2c(=O)n3ccccc3nc2n(-c2ccccc2Cl)c1=O` here?
Its EC50 is 10.4 µM (inactive).

What about the EC50 [26] of the same molecule?
Its EC50 is 2.88 µM (active).

What about the EC50 [22] of the same molecule?
The EC50 was > 120 µM (not active).

And the EC50 [23]?
Its EC50 is 11 µM (active).

And the EC50 [24]?
The EC50 was > 120 µM (not active).

What does the source list for `O=C(c1ccccn1)N(Cc1ccco1)C1(C(=O)Nc2ccc(Br)cc2)CCCCC1`?
IC50 [27]: > 32 µM (inactive); EC50 [28]: 0.423 µM (active); EC50 [29]: > 32 µM (inactive); IC50 [30]: > 32 µM (inactive); EC50 [31]: 0.0983 µM (active); IC50 [32]: > 32 µM (inactive); EC50 [33]: > 32 µM (inactive)
